Assay results as given in patent US5736559A, “Biphenyl derivatives, pharmaceutical compositions containing these compounds and processes for preparing them” (Karl Thomae GmbH, priority 1991, dated 1998).
Counter-ions that a name gives are not always drawn.

Legend:
[1] = test system: thrombocyte (platelet) aggregation; experiment: Antithrombotic activity: collagen-induced thrombocyte aggregation in platelet rich plasma (Born and Cross); format: cell-based; conditions: Homo sapiens, platelet rich plasma from healthy test subjects, 10 minutes at 37° C. preincubation, 50% change in optical density, read-out: Inhibition of platelet aggregation EC50
Method: 2. Antithrombotic activity Method: Thrombocyte aggregation is measured in platelet rich plasma from healthy test subjects using the Born and Cross method (J. Physiol. 170, 397 (1964)). In order to inhibit coagulation the blood is mixed with sodium citrate 3.14% in a ratio by volume of 1:10. Collagen-induced aggregation: The course of the decrease in optical density of the platelet suspension is photometrically measured and recorded after the addition of the substance which triggers aggregation. The rate of aggregation is deduced from the gradient angle of the density curve. The point on the curve where there is maximum transmittance is used to calculate the optical density. The quantity of collagen used is as little as possible but sufficient to give an irreversible reaction curve. Standard commercial collagen produced by Hormonchemie of Munich is used. Before the addition of the collagen the plasma is incubated for 10 minutes at 37° C. with the substance. From the measurements obtained, an EC50 is determined graphically, relating to a 50% change in optical density in terms of the inhibition of aggregation.

[2] = biological target: Fibrinogen binding to human thrombocytes; experiment: Fibrinogen binding to human thrombocytes; conditions: 125I fibrinogen; gel-filtered human platelets; ADP; 20 minutes at ambient temperature; read-out: Fibrinogen binding test IC50
Method: Fibrinogen binding to human thrombocytes The blood obtained by puncturing an antecubital vein is anticoagulated with trisodium citrate (final concentration: 13 mM) and centrifuged for 10 minutes at 170 xg. The supernatant platelet-rich plasma is poured onto a Sepharose 2B column (Pharmacia) and eluted with a solution of 90 mM common salt, 14 mM trisodium citrate, 5 mM glucose and 50 mM Tris(hydroxymethyl)aminomethane, adjusted to pH 7.4. The gel-filtered platelets (GFP) appearing before the plasma proteins are used for the binding experiments. 50 μl of a 60 mM calcium chloride solution, 50 μl of a 0.6 mM adenosine diphosphate solution, 100 μl of substance solution or solvent and 50 μl of fibrinogen solution (containing 3 μg of ^125 I fibrinogen) are added to 750 μl of GFP and incubated for 20 minutes at ambient temperature. The non-specific binding is determined in the presence of 3 mg/ml of cold fibrinogen. 900 μl of the incubated material are carefully pipetted onto 250 μl of silicon oil (AP 38: AR 20, 1:2 v/v, Wacker Chemie) in Eppendorf tubes and centrifuged for 2 minutes at 10,000 xg. The aqueous supernatant and some of the oil are drawn off, the tips of the tubes are cut off together with the platelet pellet and the quantity of bound fibrinogen is determined in a gamma counter. The concentration of substance which brings about a 50% inhibition in fibrinogen binding is determined from a series of concentrations and is given as the IC50 value.

[3] = test system: mice; experiment: tolerability after intravenous administration in mice; format: in vivo; conditions: for sedation during the injection phase: mouse, in vivo, iv, 30 mg/kg
[4] = test system: rat; experiment: tolerability after peroral administration in the rat; format: in vivo; conditions: 2.0 g/kg
[5] = test system: collagen-induced thrombocyte aggregation; experiment: collagen-induced thrombocyte aggregation ex vivo in Rhesus monkeys after oral administration; conditions: oral administration of 1 mg/kg
Method: Moreover, the compound of Example 8(5) inhibits the collagen-induced thrombocyte aggregation ex vivo in Rhesus monkeys, for example, after oral administration of 1 mg/kg for longer than 8 hours.

[6] = test system: mouse; experiment: tolerability after peroral administration in the mouse; format: in vivo; conditions: 2.0 g/kg

Row | Compound | EC50 [1] [µM] | IC50 [2] [µM] | further results
1 | N=C(N)c1ccc(-c2ccc(NC(=O)CCCC(=O)O)cc2)cc1 [1(1), 4-amidino-4'-(4-carboxybutyrylamino) biphenyl] | 1.1 | 0.16 | sedation during the injection phase [3]: 1 or 2 animals were sedated
2 | COc1ccc(CCNC(=O)C(CC(=O)O)NC(=O)Cc2ccc(-c3ccc(C(=N)N)cc3)cc2)cc1.Cl (stereo not shown) [2(11), 4-amidino-4'-[[2-carboxy-1-[[2-(4-methoxyphenyl)-ethyl]aminocarbonyl]ethylamino]carbonylmethyl]biphenyl hydrochloride] | 2.2 | 0.36 | sedation during the injection phase [3]: 1 or 2 animals were sedated
3 | COC(=O)CCCCNC(=O)c1ccc(-c2ccc(C(=N)N)cc2)cc1 [6(72), 4-amidino-4'-[(4-methoxycarbonylbutyl)amino-carbonyl]biphenyl hydrochloride] | 3.4 | 7.4 | 
4 | COC(=O)CN1CCN(C(=O)c2ccc(-c3ccc(C(=N)N)cc3)cc2)CC1 [6(74), 4-amidino-4'-[(4-methoxycarbonylmethylpiperazino)-carbonyl]biphenyl dihydrochloride] | 3.2 | 24 | 
5 | COC(=O)CCN1CCN(C(=O)c2ccc(-c3ccc(C(=N)N)cc3)cc2)CC1 [6(75), 4-amidino-4'-[[(4-(2-methoxycarbonylethyl)-piperazino]carbonyl]biphenyldi hydrochloride] | 3.2 | 27 | 
6 | COC(=O)C1CCN(C(=O)c2ccc(-c3ccc(C(=N)N)cc3)cc2)CC1 [6(81), 4-amidino-4'-[(4-methoxycarbonylpiperidino)-carbonyl]biphenyl] | 34 | 25 | 
7 | N=C(N)c1ccc(-c2ccc(C(=O)NCC(N)=O)cc2)cc1 [6(86), 4-amidino-4'-(aminocarbonylmethylaminocarbonyl)-biphenyl hydrochloride] | 21 | 5.7 | 
8 | COC(=O)C1CCC(NC(=O)c2ccc(-c3ccc(C(=N)N)cc3)cc2)CC1 (stereo not shown) [6(87), 4-amidino-4'-[(4-methoxycarbonylcyclohexyl)-aminocarbonyl]biphenyl hydrochloride] | 0.06 | 3.8 | 
9 | NCc1ccc(-c2ccc(C(=O)N3CCC(CC(=O)O)CC3)cc2)cc1 [10(1), 4-aminomethyl-4'-[(4-carboxymethylpiperidino)-carbonyl]biphenyl hydrochloride] | 1.8 | 0.8 | 
10 | Cl.N=C(N)c1ccc(-c2ccc(C(=O)N3CCC(CC(=O)O)CC3)cc2)cc1 [Example 1(39), 4-amidino-4'-[(4-carboxymethylpiperidino)-carbonyl]biphenyl hydrochloride] | 0.1 | 0.024 | animals died ([3]; mice, intravenous, 60 mg/kg, three animals tested): none of the three animals tested died
11 | N=C(N)c1ccc(-c2ccc(CC(=O)NCCC(=O)O)cc2)cc1 [Example 1, 4-Amidino-4'-[[(2-carboxyethyl)aminocarbonyl]methyl]-biphenyl] | 1.1 | 0.29 | 
12 | N=C(N)c1ccc(-c2ccc(OCCCCCC(=O)O)cc2)cc1 [Example 2, 4-Amidino-4'-(5-carboxypentyloxy)biphenyl hydrochloride] | 10 | 0.21 | 
13 | COc1ccc(CCNC(=O)C(CC(=O)O)NC(=O)CNC(=O)c2ccc(-c3ccc(C(=N)N)cc3)cc2)cc1 (stereo not shown) [Example 3, 4-Amidino-4'-[[[2-carboxy-1-[[2-(4-methoxyphenyl)-ethyl]aminocarbonyl]ethylamino]carbonylmethyl]-aminocarbonyl]biphenyl hydrochloride] | 16 | 1.3 | 
14 | COC(=O)CCCCCOc1ccc(-c2ccc(C(=N)N)cc2)cc1 [Example 6, Di-[4-Amidino-4'-(5-methoxycarbonylpentyloxy)biphenyl]dihydrogencarbonate] | 2.6 | 0.57 | 
15 | COC(=O)CC1CCN(C(=O)c2ccc(-c3ccc(C(=N)NC(=O)OC)cc3)cc2)CC1 [Example 8(5), 4-(N-methoxycarbonylamidino)-4'-[(4-methoxycarbonylmethylpiperidino)carbonyl]biphenyl] |  |  | toxic effects [4]: no toxic effects were observed; duration of inhibition of collagen-induced thrombocyte aggregation ex vivo [5]: > 8 h; toxic effects [6]: no toxic effects were observed
